# “And” between values parts separate entries of the source, which are not always exact repeats. Identical values can stand only once. Inconclusive results and toxic doses are left out.
# Tested on: P388 leukemia ip, CD2F1 mice, survival T/C
# Assay: NCI In Vivo Anticancer Drug Screen. Data for tumor model P388 Leukemia (intraperitoneal) in CD2F1 (CDF1) mice
# Conditions: endpoint: median survival time, higher = longer survival
# In short: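 Mice carrying the transplanted tumor received test compound or vehicle. Survival was recorded in each group, and the value is the treated-group measurement divided by that of the vehicle-treated control group.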
# [1] = dose: 50.0 mg/kg/injection, schedule: Q01DX005 (ip), vehicle: Klucel (hydroxypropylcellulose) (HPC)
# [2] = dose: 100.0 mg/kg/injection, schedule: Q01DX005 (ip), vehicle: Klucel (hydroxypropylcellulose) (HPC)
# [3] = dose: 200.0 mg/kg/injection, schedule: Q01DX005 (ip), vehicle: Klucel (hydroxypropylcellulose) (HPC)
# [4] = dose: 50.0 mg/kg/injection, schedule: Q01DX009 (ip), vehicle: Klucel (hydroxypropylcellulose) (HPC)
compound,measurement,setting,value
CC(=O)N=c1c(Br)cc(Br)c(C)n1O,T/C,[1],93 % of control
same,T/C,[2],99 % of control
same,T/C,[3],102 % of control
S=C(N/N=C(\c1ccccc1)c1ccccn1)SCc1ccccc1,T/C,"dose: 50.0 mg/kg/injection, schedule: Q01DX009 (ip), vehicle: saline with Tween-80",99 % of control
same,T/C,"dose: 100.0 mg/kg/injection, schedule: Q01DX009 (ip), vehicle: saline with Tween-80",90 % of control
same,T/C,"dose: 200.0 mg/kg/injection, schedule: Q01DX009 (ip), vehicle: saline with Tween-80",97 % of control
CCC(C(=O)O)C(=O)O.[NH2-].[NH2-].[Pt+2],T/C,"dose: 50.0 mg/kg/injection, schedule: Q01DX001 (ip), vehicle: saline",152 % of control
same,T/C,"dose: 100.0 mg/kg/injection, schedule: Q01DX001 (ip), vehicle: saline",175 % of control
same,T/C,"dose: 200.0 mg/kg/injection, schedule: Q01DX001 (ip), vehicle: saline",189 % of control and 205 % of control
COC(=O)C1=C(C(=O)OC)C2(c3ccccc3-c3ccccc32)C2C=CC=CN12 (stereo unspecified),T/C,[1],100 % of control
same,T/C,[2],101 % of control
same,T/C,[3],100 % of control
CC1=Nc2ccccc2NC(C)(C)C1,T/C,"dose: 50.0 mg/kg/injection, schedule: Q01DX009 (ip), vehicle: saline",103 % of control
same,T/C,"dose: 100.0 mg/kg/injection, schedule: Q01DX009 (ip), vehicle: saline",100 % of control
same,T/C,"dose: 200.0 mg/kg/injection, schedule: Q01DX009 (ip), vehicle: saline",100 % of control
COc1ccc(-c2nc3[nH]c(=S)[nH]c(=O)c3nc2-c2ccc(OC)c(OC)c2)cc1OC,T/C,"dose: 100.0 mg/kg/injection, schedule: Q01DX001 (ip), vehicle: Klucel (hydroxypropylcellulose) (HPC)",103 % of control
same,T/C,"dose: 200.0 mg/kg/injection, schedule: Q01DX001 (ip), vehicle: Klucel (hydroxypropylcellulose) (HPC)",105 % of control
same,T/C,"dose: 400.0 mg/kg/injection, schedule: Q01DX001 (ip), vehicle: Klucel (hydroxypropylcellulose) (HPC)",90 % of control
Cc1cc(NS(=O)(=O)c2ccc(N)cc2)no1.[Ag],T/C,"dose: 12.5 mg/kg/injection, schedule: Q01DX009 (ip), vehicle: Klucel (hydroxypropylcellulose) (HPC)",89 % of control
same,T/C,"dose: 25.0 mg/kg/injection, schedule: Q01DX009 (ip), vehicle: Klucel (hydroxypropylcellulose) (HPC)",101 % of control
same,T/C,[4],106 % of control
CCN(CC)C(=O)c1cc(=O)c(C)c2oc3c(C)c(O)c(N)c(C(=O)N(CC)CC)c3nc1-2,T/C,"dose: 60.0 mg/kg/injection, schedule: Q01DX005 (ip), vehicle: Klucel (hydroxypropylcellulose) (HPC)",92 % of control
same,T/C,"dose: 120.0 mg/kg/injection, schedule: Q01DX005 (ip), vehicle: Klucel (hydroxypropylcellulose) (HPC)",87 % of control
same,T/C,"dose: 240.0 mg/kg/injection, schedule: Q01DX005 (ip), vehicle: Klucel (hydroxypropylcellulose) (HPC)",86 % of control
COc1cc2c(c(OC)c1OC)-c1ccc(OC)c(=O)cc1[C@@H](N(C)C=O)CC2,T/C,"dose: 1.25 mg/kg/injection, schedule: Q01DX009 (ip), vehicle: Klucel (hydroxypropylcellulose) (HPC)",171 % of control
COc1cc(OC)c(C/C=C/c2ccccc2)cc1O,T/C,"dose: 2.5 mg/kg/injection, schedule: Q01DX009 (ip), vehicle: saline with Tween-80",100 % of control
same,T/C,"dose: 5.0 mg/kg/injection, schedule: Q01DX009 (ip), vehicle: saline with Tween-80",100 % of control
same,T/C,"dose: 10.0 mg/kg/injection, schedule: Q01DX009 (ip), vehicle: saline with Tween-80",102 % of control
O=C(C=C(C(F)(F)F)C(F)(F)F)c1cccc(S(=O)(=O)F)c1,T/C,"dose: 3.13 mg/kg/injection, schedule: Q04DX003 (ip), vehicle: saline",100 % of control
same,T/C,"dose: 6.25 mg/kg/injection, schedule: Q04DX003 (ip), vehicle: saline",100 % of control
same,T/C,"dose: 12.5 mg/kg/injection, schedule: Q04DX003 (ip), vehicle: saline",95 % of control
NC(Cc1ccc2ccccc2c1Cl)C(=O)O (stereo unspecified),T/C,[4],102 % of control
same,T/C,"dose: 100.0 mg/kg/injection, schedule: Q01DX009 (ip), vehicle: Klucel (hydroxypropylcellulose) (HPC)",100 % of control
same,T/C,"dose: 200.0 mg/kg/injection, schedule: Q01DX009 (ip), vehicle: Klucel (hydroxypropylcellulose) (HPC)",100 % of control
COc1cccc2c1C(=O)c1c(OC)c(C)cc(OC)c1C2=O,T/C,"dose: 1.56 mg/kg/injection, schedule: Q01DX009 (ip), vehicle: water",100 % of control
same,T/C,"dose: 3.13 mg/kg/injection, schedule: Q01DX009 (ip), vehicle: water",107 % of control
same,T/C,"dose: 6.25 mg/kg/injection, schedule: Q01DX009 (ip), vehicle: water",110 % of control
same,T/C,"dose: 12.5 mg/kg/injection, schedule: Q01DX009 (ip), vehicle: water",110 % of control
same,T/C,"dose: 25.0 mg/kg/injection, schedule: Q01DX009 (ip), vehicle: water",110 % of control
NC(=O)/N=[N+](\[O-])c1ccccc1,T/C,"dose: 50.0 mg/kg/injection, schedule: Q04DX003 (ip), vehicle: Klucel (hydroxypropylcellulose) (HPC)",98 % of control
same,T/C,"dose: 100.0 mg/kg/injection, schedule: Q04DX003 (ip), vehicle: Klucel (hydroxypropylcellulose) (HPC)",94 % of control

# From PubChem BioAssay AID330 (DTP/NCI, 2004)
